Source: the supplement of paper PMC9663587

How the values were obtained:
[1] = compound: CN(C)C/C=C/C(=O)Nc1ccc(O[C@@H]2CCC[C@@H](Nc3ncc(Cl)c(-c4c[nH]c5ccccc45)n3)C2)cc1 [BSJ-01-175]
[2] = compound: NC(=O)Nc1cc(-c2cccc(F)c2)sc1C(=O)N[C@H]1CCCNC1 [AZD7762]
[3] = compound: COc1ccc2c(c1)[C@]1(C[C@H]1c1ccc3c(/C=C/c4ccc(CN5C[C@@H](C)O[C@@H](C)C5)cc4)n[nH]c3c1)C(=O)N2
[4] = compound: CC(C)NC[C@@H](C(=O)N1CCN(c2ncnc3c2[C@H](C)C[C@H]3O)CC1)c1ccc(Cl)cc1 [Ipatasertib/GDC0068]
[5] = compound: CCC1=CN=CN=C1N2CCN(CC2)CC3=NC4=C(N3)C=C(C=C4)C(F)(F)F
[6] = compound: O=C1NC(=O)[C@@H](c2cn3c4c(cccc24)CCC3)[C@@H]1c1c[nH]c2ccccc12 [Tivantinib/ARQ197]
[7] = compound: CC(=O)Nc1cccc(-n2c(=O)n(C3CC3)c(=O)c3c(Nc4ccc(I)cc4F)n(C)c(=O)c(C)c32)c1
[8] = compound: O=C(CCCCCCC(=O)Nc1ccccc1)NO [Vorinostat]
[9] = compound: CCN1CCN(Cc2ccc(Nc3ncc(F)c(-c4cc(F)c5nc(C)n(C(C)C)c5c4)n3)nc2)CC1
[10] = compound: CN1CC[C@H](c2c(O)cc(O)c3c(=O)cc(-c4ccccc4Cl)oc23)[C@H](O)C1 [Flavopiridol]; assay: increase in dead-cell fraction, 72 h; higher = more death;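 also: breast cancer cell lines in 384-well plates, stained with Hoechst plus LIVE/DEAD far red dye and imaged, cells above an LDR intensity threshold counted dead, Hoechst-negative corpses included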
[11] = compound: CCc1cnn2c(NCc3ccc[n+]([O-])c3)cc(N3CCCC[C@H]3CCO)nc12; assay: as above
[12] = compound: CN(C)C(=O)c1cc2cnc(Nc3ccc(N4CCNCC4)cn3)nc2n1C1CCCC1 [LEE011/Ribociclib]; assay: as above
[13] = compound: CN(C)C/C=C/C(=O)Nc1ccc(C(=O)Nc2cccc(Nc3ncc(Cl)c(-c4c[nH]c5ccccc45)n3)c2)cc1 [THZ1]; assay: as above
[14] = compound: CC(=O)c1c(C)c2cnc(Nc3ccc(N4CCN(CCOCCOCCOCCNC(=O)COc5cccc6c5C(=O)N(C5CCC(=O)NC5=O)C6=O)CC4)cn3)nc2n(C2CCCC2)c1=O [BSJ-03-123]; assay: as above
[15] = compound: CC(=O)c1c(C)c2cnc(Nc3ccc(N4CCNCC4)cn3)nc2n(C2CCCC2)c1=O; assay: as above
[16] = compound: CCOc1cc2ncc(C#N)c(Nc3ccc(OCc4ccccn4)c(Cl)c3)c2cc1NC(=O)/C=C/CN(C)C [Neratinib/HKI272]; assay: as above
[17] = compound: CCN1CCN(Cc2ccc(Nc3ncc(F)c(-c4cc(F)c5nc(C)n(C(C)C)c5c4)n3)nc2)CC1; assay: as above
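For GR50, 72 h in this document: breast cancer and non-malignant breast epithelial cell lines, Deep Dye Drop or Dye Drop imaging, nine half-log doses, GR normalized to time-zero plates and DMSO-only controls.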

PDX1328
GR50, 72 h [1]: 0.00722 µM | GR50, 72 h [2]: 0.0284 µM | GR50, 72 h [3]: 0.00595 µM | GR50, 72 h [4]: > 10 µM | GR50, 72 h [5]: > 10 µM | GR50, 72 h [6]: 0.239 µM | GR50, 72 h [7]: > 1 µM | GR50, 72 h [8]: 0.687 µM | GR50, 72 h [9]: 0.0288 µM | increase in dead-cell fraction ([10]; 0.0001 µM): 0.003 | increase in dead-cell fraction ([10]; 0.0003162 µM): -0.0035 | increase in dead-cell fraction ([10]; 0.001 µM): -0.0003 | increase in dead-cell fraction ([10]; 0.003162 µM): -0.0025 | increase in dead-cell fraction ([10]; 0.01 µM): -0.0027 | increase in dead-cell fraction ([10]; 0.03162 µM): -0.0044 | increase in dead-cell fraction ([10]; 0.1 µM): -0.0014 | increase in dead-cell fraction ([10]; 0.3162 µM): 0.0342 | increase in dead-cell fraction ([10]; 1 µM): 0.348 | increase in dead-cell fraction ([11]; 0.0001 µM): -0.0005 | increase in dead-cell fraction ([11]; 0.0003162 µM): 0.0028 | increase in dead-cell fraction ([11]; 0.001 µM): -0.0033 | increase in dead-cell fraction ([11]; 0.003162 µM): -0.0053 | increase in dead-cell fraction ([11]; 0.01 µM): -0.0021 | increase in dead-cell fraction ([11]; 0.03162 µM): 0.113 | increase in dead-cell fraction ([11]; 0.1 µM): 0.187 | increase in dead-cell fraction ([11]; 0.3162 µM): 0.19 | increase in dead-cell fraction ([11]; 1 µM): 0.213 | increase in dead-cell fraction ([12]; 0.001 µM): -0.0001 | increase in dead-cell fraction ([12]; 0.003162 µM): -0.0049 | increase in dead-cell fraction ([12]; 0.01 µM): -0.0091 | increase in dead-cell fraction ([12]; 0.03162 µM): -0.0001 | increase in dead-cell fraction ([12]; 0.1 µM): 0.0131 | increase in dead-cell fraction ([12]; 0.3162 µM): 0.0012 | increase in dead-cell fraction ([12]; 1 µM): -0.0011 | increase in dead-cell fraction ([12]; 3.162 µM): 0.005 | increase in dead-cell fraction ([12]; 10 µM): 0.0126 | increase in dead-cell fraction ([13]; 0.0001 µM): -0.0047 | increase in dead-cell fraction ([13]; 0.0003162 µM): -0.0031 | increase in dead-cell fraction ([13]; 0.001 µM): -0.0014 | increase in dead-cell fraction ([13]; 0.003162 µM): -0.0053 | increase in dead-cell fraction ([13]; 0.01 µM): 0.0031 | increase in dead-cell fraction ([13]; 0.03162 µM): 0.0436 | increase in dead-cell fraction ([13]; 0.1 µM): 0.123 | increase in dead-cell fraction ([13]; 0.3162 µM): 0.225 | increase in dead-cell fraction ([13]; 1 µM): 0.432 | increase in dead-cell fraction ([14]; 0.001 µM): -0.0042 | increase in dead-cell fraction ([14]; 0.003162 µM): -0.0045 | increase in dead-cell fraction ([14]; 0.01 µM): -0.0076 | increase in dead-cell fraction ([14]; 0.03162 µM): -0.0013 | increase in dead-cell fraction ([14]; 0.1 µM): -0.006 | increase in dead-cell fraction ([14]; 0.3162 µM): -0.0065 | increase in dead-cell fraction ([14]; 1 µM): -0.0104 | increase in dead-cell fraction ([14]; 3.162 µM): -0.0015 | increase in dead-cell fraction ([14]; 10 µM): 0.0283 | increase in dead-cell fraction ([15]; 0.0003162 µM): -0.0028 | increase in dead-cell fraction ([15]; 0.001 µM): 0.0004 | increase in dead-cell fraction ([15]; 0.003162 µM): -0.0023 | increase in dead-cell fraction ([15]; 0.01 µM): 0.0019 | increase in dead-cell fraction ([15]; 0.03162 µM): -0.005 | increase in dead-cell fraction ([15]; 0.1 µM): 0.0014 | increase in dead-cell fraction ([15]; 0.3162 µM): -0.0028 | increase in dead-cell fraction ([15]; 1 µM): 0.0026 | increase in dead-cell fraction ([15]; 3.162 µM): 0.0055 | increase in dead-cell fraction ([16]; 0.0003162 µM): 0.0026 | increase in dead-cell fraction ([16]; 0.001 µM): 0.0005 | increase in dead-cell fraction ([16]; 0.003162 µM): 0.002 | increase in dead-cell fraction ([16]; 0.01 µM): -0.0007 | increase in dead-cell fraction ([16]; 0.03162 µM): 0.0044 | increase in dead-cell fraction ([16]; 0.1 µM): 0.0093 | increase in dead-cell fraction ([16]; 0.3162 µM): 0.0044 | increase in dead-cell fraction ([16]; 1 µM): 0.0158 | increase in dead-cell fraction ([16]; 3.162 µM): 0.0733 | increase in dead-cell fraction ([17]; 0.001 µM): 0.0018 | increase in dead-cell fraction ([17]; 0.003162 µM): -0.0052 | increase in dead-cell fraction ([17]; 0.01 µM): 0.0039 | increase in dead-cell fraction ([17]; 0.03162 µM): 0.0167 | increase in dead-cell fraction ([17]; 0.1 µM): 0.0116 | increase in dead-cell fraction ([17]; 0.3162 µM): 0.0089 | increase in dead-cell fraction ([17]; 1 µM): 0.0192 | increase in dead-cell fraction ([17]; 3.162 µM): 0.029 | increase in dead-cell fraction ([17]; 10 µM): 0.475

MDAMB157
GR50, 72 h [2]: 0.0154 µM | GR50, 72 h [4]: > 10 µM | GR50, 72 h [5]: 3.78 µM | GR50, 72 h [6]: 0.777 µM | GR50, 72 h [7]: 0.111 µM | GR50, 72 h [8]: 1.1 µM | GR50, 72 h [9]: 1.8 µM | increase in dead-cell fraction ([11]; 0.0001 µM): 0 | increase in dead-cell fraction ([11]; 0.0003162 µM): -0.0024 | increase in dead-cell fraction ([11]; 0.001 µM): 0.0008 | increase in dead-cell fraction ([11]; 0.003162 µM): 0.0027 | increase in dead-cell fraction ([11]; 0.01 µM): 0.028 | increase in dead-cell fraction ([11]; 0.03162 µM): 0.41 | increase in dead-cell fraction ([11]; 0.1 µM): 0.781 | increase in dead-cell fraction ([11]; 0.3162 µM): 0.834 | increase in dead-cell fraction ([11]; 1 µM): 0.851 | increase in dead-cell fraction ([15]; 0.0003162 µM): 0.0033 | increase in dead-cell fraction ([15]; 0.001 µM): 0.0064 | increase in dead-cell fraction ([15]; 0.003162 µM): 0.0023 | increase in dead-cell fraction ([15]; 0.01 µM): 0.0015 | increase in dead-cell fraction ([15]; 0.03162 µM): 0.0013 | increase in dead-cell fraction ([15]; 0.1 µM): 0.0006 | increase in dead-cell fraction ([15]; 0.3162 µM): -0.002 | increase in dead-cell fraction ([15]; 1 µM): -0.0042 | increase in dead-cell fraction ([15]; 3.162 µM): -0.0011 | increase in dead-cell fraction ([16]; 0.0003162 µM): 0.0012 | increase in dead-cell fraction ([16]; 0.001 µM): 0.0066 | increase in dead-cell fraction ([16]; 0.003162 µM): 0.004 | increase in dead-cell fraction ([16]; 0.01 µM): -0.0008 | increase in dead-cell fraction ([16]; 0.03162 µM): 0.0016 | increase in dead-cell fraction ([16]; 0.1 µM): -0.0006 | increase in dead-cell fraction ([16]; 0.3162 µM): 0.0073 | increase in dead-cell fraction ([16]; 1 µM): -0.0005 | increase in dead-cell fraction ([16]; 3.162 µM): 0.032 | increase in dead-cell fraction ([17]; 0.001 µM): -0.0027 | increase in dead-cell fraction ([17]; 0.003162 µM): -0.0032 | increase in dead-cell fraction ([17]; 0.01 µM): -0.0032 | increase in dead-cell fraction ([17]; 0.03162 µM): 0.0011 | increase in dead-cell fraction ([17]; 0.1 µM): 0.0051 | increase in dead-cell fraction ([17]; 0.3162 µM): 0.0141 | increase in dead-cell fraction ([17]; 1 µM): 0.0387 | increase in dead-cell fraction ([17]; 3.162 µM): 0.0737 | increase in dead-cell fraction ([17]; 10 µM): 0.48
